The source of these data is ChEMBL document CHEMBL1201862, “PubChem BioAssay data set” (2004).

Test systems include NCI-H23; SK-OV-3; SN12C; SF-268; SK-MEL-5; HOP-92; K562; UACC-62; COLO 205; HOP-62; NCI-H460; SK-MEL-2; SW-620; HT-29; KM12; HCT-15; MDA-MB-231; SR.
Common to all, as to assay: DTP human tumour cell line panel, 48 h

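Five compound concentrations were applied to cells in 96-well plates for 48 hours; endpoints were derived by simple linear interpolation of the resulting dose-response curve. GI50: concentration for 50% inhibition of growth.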 The source made the active and inactive calls. Cut-off read from the data, not from the text of the source: active = GI50 up to about 1.1 µM and inactive = higher. Where only a bound is given, the exact number is not on record here.

For `Nc1ccccc1SC(/C=C/NNC1=NN=C(c2ccccc2)C(c2ccccc2)N1)c1ccccc1` (stereo not given), the GI50 was 5.85 µM (inactive) in the assay with NCI-H23; 29.6 µM (inactive) in the assay with SK-OV-3; 17 µM (inactive) with SN12C; 5.64 µM (inactive) with SF-268; 13.4 µM (inactive) with SK-MEL-5; 8.57 µM (inactive) in the assay with HOP-92. The GI50 in the assay on K562 was 9.25 µM (inactive); with UACC-62, 10.6 µM (inactive); in the assay on COLO 205, 15.6 µM (inactive); with HOP-62, 19.5 µM (inactive); with NCI-H460 it was 18.5 µM (inactive); in the assay with SK-MEL-2, 17.7 µM (inactive). Moreover, the GI50 in the assay on SW-620 was 11.7 µM (inactive); with HT-29 it was 17.1 µM (inactive); in the assay with KM12, 12.7 µM (inactive); in the assay on HCT-15, 11.5 µM.
Regarding `Cc1ccc(NC(=O)/C(CC2Nc3c(ccc4c3C(=O)c3ccccc3C4=O)NC2O)=N/NC(C)(C)C)cc1` (stereo not given), the GI50 was 17.7 µM (inactive) in the assay on NCI-H23; 12.8 µM (inactive) with SK-OV-3; 12.6 µM (inactive) in the assay with SN12C; 10.4 µM (inactive) with SF-268; 5.6 µM (inactive) with SK-MEL-5; 3.42 µM (inactive) with MDA-MB-231. In addition, the GI50 is 16.8 µM (inactive) in the assay on HOP-92; 11.9 µM (inactive) with UACC-62; 21.5 µM (inactive) in the assay on COLO 205; 13.8 µM (inactive) in the assay with HOP-62; 9.57 µM (inactive) in the assay on NCI-H460; 18.9 µM (inactive) with SK-MEL-2. Further, the GI50 in the assay on SW-620 is 9.68 µM (inactive); in the assay on HT-29, 16.4 µM (inactive); in the assay on KM12, 8.85 µM (inactive); with HCT-15, 5.79 µM.
`COc1ccc(C2C=C(c3ccc4c(c3)OCO4)Oc3c2c(=O)oc2ccccc32)cc1OC` (stereo not given): the 50% growth inhibitory concentration (GI50) was 0.446 µM (active) with NCI-H23; 0.372 µM (active) with SK-OV-3; 1.36 µM (inactive) in the assay with SN12C; 236 nM (active) in the assay with SR; 0.713 µM (active) in the assay with SF-268; 0.324 µM (active) in the assay with SK-MEL-5. The GI50 is 1.36 µM (inactive) in the assay on MDA-MB-231; 34 µM (inactive) with HOP-92; 0.299 µM (active) with K562; 0.294 µM (active) with UACC-62; 0.361 µM (active) in the assay with COLO 205; > 100 µM (inactive) in the assay on HOP-62. Moreover, the GI50 was 0.406 µM (active) in the assay with NCI-H460; 0.468 µM (active) in the assay on SW-620; 0.402 µM (active) in the assay on HT-29; 0.443 µM (active) with KM12; 0.415 µM in the assay on HCT-15.
As for `COc1ccc(CNc2nc(NCc3ccc(OC)cc3)nc(NC3CCCC3)n2)cc1`, the GI50 is 2.99 µM (inactive) with NCI-H23; 5.28 µM (inactive) in the assay with SK-OV-3; > 19.8 µM (inactive) with SN12C; 2670 nM (inactive) with SR; 7.18 µM (inactive) in the assay on SF-268; 3.76 µM (inactive) in the assay on SK-MEL-5. For the same molecule, the GI50 in the assay on MDA-MB-231 was 3.54 µM (inactive); with K562, 2.99 µM (inactive); in the assay on COLO 205 it was 3.05 µM (inactive); in the assay on HOP-62, 3.07 µM (inactive); with NCI-H460 it was 3.6 µM (inactive); in the assay on SW-620, 4.14 µM (inactive). Moreover, the GI50 is 3.04 µM (inactive) in the assay with HT-29, 0.28 µM (active) with KM12 and 3.19 µM in the assay on HCT-15.
Take `COc1cccc(NC(=O)C(C#N)=C(SC)SC)c1`: the GI50 was > 100 µM (inactive) in the assay with SK-OV-3; > 100 µM (inactive) in the assay with SN12C; > 100 µM (inactive) with SF-268; 41.8 µM (inactive) with SK-MEL-5; > 100 µM (inactive) in the assay on MDA-MB-231; 46 µM (inactive) in the assay with HOP-92. Moreover, the GI50 in the assay on K562, in the assay with UACC-62, in the assay with COLO 205, in the assay with HOP-62, in the assay with NCI-H460 and with SK-MEL-2 was > 100 µM (inactive) each time. Also, the GI50 was > 100 µM (inactive) in the assay with SW-620, > 100 µM (inactive) in the assay with HT-29, > 100 µM (inactive) in the assay on KM12 and greater than 100 µM in the assay with HCT-15.

In general, GI50 refers to the concentration giving 50% growth inhibition.
